{"source": "paper PMC11876601", "about": "(Molecular Systems Biology, 2025)", "key": {"[1]": {"system": "MAP3K5", "parameters": "method as in Klaeger et al. (2017)", "conditions": "lysate 4 cell line mix (Colo205, K-562, MV-4-11, and SK-N-BE(2)), Kinobeads y, ref Klaeger et al. (2017); cited from earlier work"}, "[2]": {"system": "BTK", "parameters": "method as in Klaeger et al. (2017)", "conditions": "lysate 4 cell line mix (Colo205, K-562, MV-4-11, and SK-N-BE(2)), Kinobeads y, ref Klaeger et al. (2017); cited from earlier work"}, "[3]": {"system": "GAK", "parameters": "method as in Klaeger et al. (2017)", "conditions": "lysate 4 cell line mix (Colo205, K-562, MV-4-11, and SK-N-BE(2)), Kinobeads y, ref Klaeger et al. (2017); cited from earlier work"}, "[4]": {"system": "PRKX", "parameters": "method as in Klaeger et al. (2017)", "conditions": "lysate 4 cell line mix (Colo205, K-562, MV-4-11, and SK-N-BE(2)), Kinobeads y, ref Klaeger et al. (2017); cited from earlier work"}, "[5]": {"system": "RASSF5", "parameters": "method as in Klaeger et al. (2017)", "conditions": "RASSF5, 4 cell line mix lysate, Kinobeads y, ref Klaeger et al. (2017); cited from earlier work"}, "[6]": {"system": "SIK3", "parameters": "method as in Klaeger et al. (2017)", "conditions": "lysate 4 cell line mix (Colo205, K-562, MV-4-11, and SK-N-BE(2)), Kinobeads y, ref Klaeger et al. (2017); cited from earlier work"}, "[7]": {"system": "ERN2", "parameters": "method as in Klaeger et al. (2017)", "conditions": "ERN2, 4 cell line mix lysate, Kinobeads y, ref Klaeger et al. (2017); cited from earlier work"}, "[8]": {"system": "PSN-1", "assay": "cells", "parameters": "Viability of PDAC cell lines, ATPlite luminescence, 11-dose single-agent curve fit", "conditions": "Homo sapiens, PSN1, 72 h, read-out: EC50 [nM]", "how_it_was_run": "(§1)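 screening used cells plated at 1000 to 5000 per well one day before treatment. Final DMSO was 0.2%. Each plate held untreated negative-control wells and 5 µM staurosporine positive-control wells.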"}, "[9]": {"system": "Capan-1", "assay": "cells", "parameters": "Viability of PDAC cell lines, ATPlite luminescence, 11-dose single-agent curve fit", "conditions": "Homo sapiens, CAPAN-1, 72 h, read-out: EC50 [nM]", "how_it_was_run": "as §1"}, "[10]": {"system": "HPDE", "assay": "cells", "parameters": "Viability of PDAC cell lines, ATPlite luminescence, 11-dose single-agent curve fit", "conditions": "HPDE, 72 h, read-out: EC50 [nM]", "how_it_was_run": "as §1"}, "[11]": {"system": "FGFR1", "parameters": "method as in Reinecke et al. (2023)", "conditions": "FGFR1, 5 cell line mix lysate, Kinobeads ε, ref Reinecke et al. (2023), cited from earlier work"}, "[12]": {"system": "PRKAA1", "parameters": "method as in Reinecke et al. (2023)", "conditions": "PRKAA1, 5 cell line mix lysate, Kinobeads ε, ref Reinecke et al. (2023), cited from earlier work"}, "[13]": {"system": "TRAF2", "parameters": "method as in Reinecke et al. (2023)", "conditions": "TRAF2, 5 cell line mix lysate, Kinobeads ε, ref Reinecke et al. (2023), cited from earlier work"}, "[14]": {"system": "LOC102724428;SIK1", "parameters": "method as in Reinecke et al. (2023)", "conditions": "LOC102724428;SIK1, 5 cell line mix lysate, Kinobeads ε, ref Reinecke et al. (2023), cited from earlier work"}, "[15]": {"system": "MARK2", "conditions": "MARK2, 5 cell line mix lysate, Kinobeads ε, ref Reinecke et al. (2023), cited from earlier work"}, "[16]": {"biological_target": "EGFR", "parameters": "method as in Reinecke et al. (2023)", "conditions": "5 cell line mix lysate, Kinobeads ε, ref Reinecke et al. (2023), cited from earlier work"}, "[17]": {"system": "FLT4", "parameters": "method as in Reinecke et al. (2023)", "conditions": "FLT4, 5 cell line mix lysate, Kinobeads ε, ref Reinecke et al. (2023), cited from earlier work"}, "[18]": {"system": "IRAK3", "conditions": "IRAK3, 5 cell line mix lysate, Kinobeads ε, ref Reinecke et al. (2023), cited from earlier work"}, "[19]": {"system": "PTK2", "parameters": "method as in Reinecke et al. (2023)", "conditions": "PTK2, 5 cell line mix lysate, Kinobeads ε, ref Reinecke et al. (2023), cited from earlier work"}, "[20]": {"biological_target": "AXL", "parameters": "method as in Reinecke et al. (2023)", "conditions": "5 cell line mix lysate, Kinobeads ε, ref Reinecke et al. (2023), cited from earlier work"}}, "data": [{"smiles": "C[C@]12O[C@H](C[C@]1(O)CO)n1c3ccccc3c3c4c(c5c6ccccc6n2c5c31)CNC4=O", "note": "[Lestaurtinib]", "values": [{"measurement": "EC50", "setting": "[1]", "result": 788, "unit": "nM"}, {"measurement": "EC50", "setting": "[2]", "result": "[…]"}, {"measurement": "EC50", "setting": "[3]", "result": "[…]"}, {"measurement": "EC50", "setting": "[4]", "result": "[…]"}, {"measurement": "EC50", "setting": "[5]", "result": 73, "unit": "nM"}, {"measurement": "EC50", "setting": "[6]", "result": 1040, "unit": "nM"}, {"measurement": "EC50", "setting": "[7]", "result": 373, "unit": "nM"}]}, {"smiles": "CCN1CCN(Cc2ccc(Nc3ncc(F)c(-c4cc(F)c5nc(C)n(C(C)C)c5c4)n3)nc2)CC1", "note": "[Abemaciclib]", "values": [{"measurement": "EC50", "setting": "[8]", "result": 151, "unit": "nM"}, {"measurement": "EC50", "setting": "[9]", "result": 245, "unit": "nM"}, {"measurement": "EC50", "setting": "[10]", "result": "> 10000", "unit": "nM"}]}, {"smiles": "COc1cc(N2CCC(N3CCN(C)CC3)CC2)ccc1Nc1ncc(Cl)c(Nc2ccccc2P(C)(C)=O)n1", "note": "[Brigatinib]", "values": [{"measurement": "EC50", "setting": "[11]", "result": 419, "unit": "nM"}, {"measurement": "pKDapp", "setting": "[11]", "result": 6.51}, {"measurement": "Kd", "setting": "[11]; read-out: KDapp", "result": 308, "unit": "nM"}, {"measurement": "EC50", "setting": "[12]", "result": 1110, "unit": "nM"}, {"measurement": "pKDapp", "setting": "[12]", "result": 6.15}, {"measurement": "Kd", "setting": "[12]; read-out: KDapp", "result": 709, "unit": "nM"}, {"measurement": "EC50", "setting": "[13]", "result": 3.94, "unit": "µM"}, {"measurement": "pKDapp", "setting": "[13]", "result": 5.48}, {"measurement": "Kd", "setting": "[13]; read-out: KDapp", "result": 3.28, "unit": "µM"}, {"measurement": "EC50", "setting": "[14]", "result": 106, "unit": "nM"}, {"measurement": "pKDapp", "setting": "[14]", "result": 6.98}, {"measurement": "Kd", "setting": "[14]; read-out: KDapp", "result": 106, "unit": "nM"}, {"measurement": "EC50", "setting": "[15]", "result": 247, "unit": "nM"}, {"measurement": "pKDapp", "setting": "[15]", "result": 6.73}, {"measurement": "Kd", "setting": "[15]; read-out: KDapp", "result": 186, "unit": "nM"}, {"measurement": "Kd", "setting": "[16]; read-out: KDapp", "result": 146, "unit": "nM"}, {"measurement": "EC50", "setting": "[16]", "result": 184, "unit": "nM"}, {"measurement": "pKDapp", "setting": "[16]", "result": 6.84}, {"measurement": "EC50", "setting": "[17]", "result": 369, "unit": "nM"}, {"measurement": "pKDapp", "setting": "[17]", "result": 6.43}, {"measurement": "Kd", "setting": "[17]; read-out: KDapp", "result": 369, "unit": "nM"}, {"measurement": "EC50", "setting": "[18]", "result": 1150, "unit": "nM"}, {"measurement": "pKDapp", "setting": "[18]", "result": 6.31}, {"measurement": "Kd", "setting": "[18]; read-out: KDapp", "result": 494, "unit": "nM"}, {"measurement": "EC50", "setting": "[19]", "result": 12.6, "unit": "nM"}, {"measurement": "pKDapp", "setting": "[19]", "result": 8.29}, {"measurement": "Kd", "setting": "[19]; read-out: KDapp", "result": 5.15, "unit": "nM"}, {"measurement": "Kd", "setting": "[20]; read-out: KDapp", "result": 635, "unit": "nM"}, {"measurement": "EC50", "setting": "[20]", "result": 635, "unit": "nM"}, {"measurement": "pKDapp", "setting": "[20]", "result": 6.20}]}]}
